Experimental findings from PubChem BioAssay (NCI) are described below.

Molecules are shown by their SMILES.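 Step 1: Grow cells in 96-well plates. Step 2: Expose to compound for 48 hours at 5 concentrations. Step 3: Interpolate endpoints linearly; if unreached, use highest concentration. GI50 marks 50% less growth. TGI: concentration producing complete growth inhibition.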

Some test systems named below: HCT-116 colon; SK-MEL-2 melanoma; A498 renal; T-47D breast; SK-MEL-28 melanoma; KM12 colon; HCT-15 colon; OVCAR-4 ovarian; OVCAR-3 ovarian; RXF 393 renal.
Holding throughout (assay): inhibition of tumour cell growth, NCI panel, 48 h

Consider `CN(C)CC1CCCCCC(Br)C1=O` (stereo not given), for which the TGI is 5.1 µM in the assay on HCT-116 colon; 54.4 µM with SK-MEL-2 melanoma; above 100 µM in the assay on A498 renal; above 54.6 µM in the assay on T-47D breast; 34 µM with SK-MEL-28 melanoma; 41 µM in the assay on KM12 colon. Also, the TGI was found to be 25.4 µM in the assay on HCT-15 colon, 33.6 µM in the assay on OVCAR-4 ovarian, 21.6 µM in the assay on OVCAR-3 ovarian and 32.6 µM with RXF 393 renal.

As to `COC1C(CO)OC(n2c3c(Cl)cccc3c3c4c(c5c6cccc(Cl)c6[nH]c5c32)C(=O)NC4=O)C(O)C1O` (stereo not given), the TGI is 0.781 µM with HCT-116 colon; above 26.3 µM in the assay on SK-MEL-2 melanoma; 0.688 µM in the assay on A498 renal; above 21.1 µM with T-47D breast; above 73.5 µM in the assay on SK-MEL-28 melanoma; above 58.6 µM with KM12 colon. Further, the TGI in the assay on HCT-15 colon is above 100 µM; in the assay with OVCAR-4 ovarian it was 18.3 µM; in the assay on OVCAR-3 ovarian, 6.67 µM; in the assay on RXF 393 renal, 4.95 µM.

In the case of `Nc1nc(-c2ccc(Cl)cc2)cc(-c2ccc(Cl)cc2)c1-c1nc2ccccc2o1`, the GI50 with HCT-116 colon was 14.8 µM; in the assay on SK-MEL-2 melanoma, 16.6 µM; with A498 renal it was 19.6 µM; with T-47D breast, 13.4 µM; in the assay with SK-MEL-28 melanoma, 17.4 µM; with KM12 colon, 12.2 µM. Moreover, the GI50 was 17.2 µM in the assay on HCT-15 colon, 18.5 µM in the assay with OVCAR-4 ovarian, 18.6 µM in the assay with OVCAR-3 ovarian and 14.1 µM with RXF 393 renal. The TGI is 30.5 µM with HCT-116 colon; 33.4 µM in the assay on SK-MEL-2 melanoma; 34.6 µM in the assay on A498 renal; 29.6 µM in the assay with T-47D breast; 34.3 µM in the assay on SK-MEL-28 melanoma; 27.2 µM in the assay with KM12 colon. Moreover, the TGI in the assay on HCT-15 colon was 34.8 µM; in the assay with OVCAR-4 ovarian, 35.5 µM; in the assay with OVCAR-3 ovarian, 35.5 µM; in the assay with RXF 393 renal it was 33.5 µM.

On to `O=C1/C(=C/c2ccc(Cl)cc2)CN(C(=O)CCN2CCC(=NO)CC2)C/C1=C\c1ccc(Cl)cc1`, for which the GI50 was 0.245 µM in the assay on HCT-116 colon; 1.95 µM with SK-MEL-2 melanoma; 1.15 µM with A498 renal; 1.08 µM with T-47D breast; 1.57 µM with SK-MEL-28 melanoma; 0.388 µM with KM12 colon. The GI50 in the assay on HCT-15 colon is 0.383 µM; in the assay on OVCAR-4 ovarian, 0.834 µM; in the assay with OVCAR-3 ovarian, 0.628 µM; with RXF 393 renal it was 1.46 µM. The TGI came to 0.654 µM in the assay with HCT-116 colon; 3.92 µM in the assay with SK-MEL-2 melanoma; 2.41 µM with A498 renal; 4.26 µM in the assay on T-47D breast; 2.96 µM in the assay on SK-MEL-28 melanoma; 0.935 µM with KM12 colon. For the same compound, the TGI in the assay with HCT-15 colon stood at 1.38 µM; in the assay with OVCAR-4 ovarian, 2.39 µM; in the assay with OVCAR-3 ovarian it was 1.78 µM; in the assay on RXF 393 renal, 2.87 µM.

With `Cc1ccc(-c2cc(-c3ccc(C)cc3)nc(N3CCN(CCNc4ccnc5cc(Cl)ccc45)CC3)n2)cc1`, the GI50 with HCT-116 colon was 1.66 µM; with SK-MEL-2 melanoma, 7.89 µM; in the assay with A498 renal, 9.69 µM; in the assay on T-47D breast it was 3.21 µM; with SK-MEL-28 melanoma, 1.91 µM; with KM12 colon it was 5.7 µM. In addition, the GI50 in the assay on HCT-15 colon was 3.42 µM; with OVCAR-4 ovarian, 0.912 µM; in the assay on OVCAR-3 ovarian, 1.29 µM; in the assay on RXF 393 renal it was 1.45 µM. The TGI worked out at 6.91 µM in the assay on HCT-116 colon; 20.3 µM in the assay with SK-MEL-2 melanoma; 30.4 µM with A498 renal; 17.9 µM in the assay on T-47D breast; 9.82 µM in the assay on SK-MEL-28 melanoma; 39.2 µM in the assay on KM12 colon. For the same compound, the TGI in the assay on HCT-15 colon amounted to 24.5 µM; in the assay with OVCAR-4 ovarian, 1.9 µM; in the assay on OVCAR-3 ovarian, 3.26 µM; in the assay on RXF 393 renal, 7.36 µM.

Take `O=C(c1ccco1)c1nc2cc(C(F)(F)F)ccc2[n+]([O-])c1C(F)(F)F`: the GI50 is 38.5 µM in the assay on HCT-116 colon; 46 µM with SK-MEL-2 melanoma; 39.3 µM with A498 renal; 19.2 µM with T-47D breast; 41.4 µM in the assay with SK-MEL-28 melanoma; 17.4 µM in the assay with KM12 colon. Further, the GI50 in the assay with HCT-15 colon was 56.5 µM; in the assay on OVCAR-4 ovarian, 17.9 µM; in the assay on OVCAR-3 ovarian, 30.5 µM; in the assay on RXF 393 renal, 61.4 µM. The TGI in the assay on HCT-116 colon, with SK-MEL-2 melanoma, in the assay with A498 renal, in the assay with T-47D breast, in the assay with SK-MEL-28 melanoma and with KM12 colon was above 100 µM throughout. Besides, the TGI was above 100 µM in the assay on HCT-15 colon, 55.2 µM in the assay with OVCAR-4 ovarian, above 100 µM in the assay with OVCAR-3 ovarian and above 100 µM in the assay on RXF 393 renal.

As for `CC[C@H]1CN(C)[C@H]2Cc3c([nH]c4ccccc34)C(=O)C[C@H]1C2C(=O)OC` (stereo not given in full), the TGI in the assay on HCT-116 colon, in the assay with SK-MEL-2 melanoma, in the assay on A498 renal, with T-47D breast, in the assay with SK-MEL-28 melanoma and in the assay with KM12 colon was above 100 µM throughout. The TGI in the assay on HCT-15 colon, in the assay on OVCAR-4 ovarian, in the assay on OVCAR-3 ovarian and in the assay on RXF 393 renal was above 100 µM in each case.

As for `CCCCCCCCCCC[C@@H](C[C@H]1OC(=O)[C@H]1CCCCCC)OC(=O)[C@@H](CC(C)C)NC=O`, the GI50 was 3.14 µM in the assay on HCT-116 colon; 6.04 µM in the assay with SK-MEL-2 melanoma; 4.64 µM with A498 renal; 13.3 µM with T-47D breast; 19.8 µM in the assay on SK-MEL-28 melanoma; 3.92 µM in the assay with KM12 colon. For the same compound, the GI50 was 2.65 µM in the assay on HCT-15 colon, 3.6 µM in the assay with OVCAR-4 ovarian, 3.17 µM with OVCAR-3 ovarian and 1.71 µM with RXF 393 renal. The TGI was 19.3 µM in the assay on HCT-116 colon; 24.8 µM in the assay with SK-MEL-2 melanoma; 29.9 µM in the assay on A498 renal; above 100 µM in the assay on T-47D breast; above 100 µM in the assay with SK-MEL-28 melanoma; 34.6 µM in the assay on KM12 colon. For the same compound, the TGI with HCT-15 colon stood at 46.8 µM; in the assay with OVCAR-4 ovarian, 37.7 µM; with OVCAR-3 ovarian, 14.5 µM; in the assay with RXF 393 renal it was 16.8 µM.
